Marks after values point to notes of the source that are not given here.

Series [1] concerns rabbit VX2 liver tumor animal model. The series can be described thus: Cisplatin plus composition 3-preparation in rabbit VX2 liver tumor model (Example 34). Type of series: in vivo, New Zealand rabbits. Conditions: cisplatin 4 mg/kg once a week alone, 4 weeks. The method, then:
SPF grade New Zealand rabbits, 4-8 weeks old, 1.8-2.2 kg, with a standard diet and free access to water, were kept in an environment of 12-hour light/dark cycle with a constant temperature of (23±2° C.) and a humidity of (55±15%). The animals were anesthetized, guided by ultrasound, and VX2 hepatoma cells were introduced into the liver by minimally invasive approach, After monitoring New Zealand rabbits for 14 days, and tumor size was monitored with ultrasound; rabbits were randomly divided into 4 groups of 10 animals in each group according to tumor size and body weight, and drug treatment was started on day 15. Rabbits in the control group were intravenously injected with 0.9% sodium chloride injection through the ear vein. […] All New Zealand rabbits were treated for 4 weeks.
Tumor volume was estimated using the formula V=π(a×b^2)/6, where a and b were the longest and shortest diameters of the tumor measured using calipers. The weights of rabbits were monitored every 3-4 days during the experiment, and rabbited were sacrificed at the end of treatment; blood was collected, AST, ALT and CREA were tested, and the results are shown in Table 30. After anesthetizing each rabbit with Sutai 50+ tachypnosis 0.1 ml/kg, carotid artery phlebotomy was used as a termination procedure.

Series [2] deals with chronic cadmium poisoning model rabbits. The series can be described thus: Cadmium-removing effect by intravenous drip in chronic cadmium poisoning rabbits (Example 18). The conditions noted are these: for Urine β2-microglobulin values: after four weeks of administration. Type of series: in vivo, New Zealand rabbits. The text has this:
205 male New Zealand rabbits, 1.8˜2.2 kg, were randomly divided into a blank control group with 25 rabbits and chronic cadmium poisoning groups with a total of 180 rabbits. The model rabbits were ear margin intravenous injected with a mixed solution containing 1.5 μmol/kg CdCl2 and 30 μmol/kg thioethanol (ME) according to weight, once/d for continuous 5 days, and observed for 35 days. After 35 days, qualified rabbits were selected according to weight, including 18 rabbits in the blank group and 162 rabbits in the poisoning group. The 162 rabbits in the poisoning group were randomly divided into a model group, D3 high-dose group, D3 low-dose group, compound 3B high-dose group, compound 3B low-dose group, composition 3 high-dose group, composition 3 low-dose group, composition 3-powder injection high-dose group, composition 3-powder injection low-dose group, with 18 rabbits in each group. Rabbits in the mode group and the blank group were administered by intravenous drip with the same volume of normal saline, with a rate of 30 drops/min for a dripping time of about 2 h, 1 time/d, 5 d/week. After administration on the last day of week 1, week 2 and week 4, the urine of 0 h˜6 h and the urine of 7 h˜24 h of rabbits were respectively collected; the content of cadmium in blood, urine and kidney, and the cadmium-removing rate from blood and kidney were determined, and the results are shown in Table 6.

In series [3] the test system is lead poisoning model rats. The series can be described thus: Therapeutic effect on lead poisoning in SD rats (Example 22). Type of series: in vivo. The conditions noted are these: EDTA 93.5 mg/kg, 4 weeks. The method, then:
30 SD rats with a body weight of 180˜200 g were taken; rats in the blank group freely drank deionized water containing 12.5 μL acetic acid for 3 weeks.
Rats in all groups were administrated once a day for 5 days/week for a total of 4 weeks. Rats in the blank group and model group were administered by intravenous drip with normal saline, and rats in treating groups were administered with normal saline solution of the corresponding drug; the administration volume of all groups was the same, with a dripping rate of 30 drops/min for a time of about 1 h, 1 time/day, 5 days/week; the grouping and administration dose of rats are shown in Table 14.

Series [4] has as its system thallium poisoning model rats. As to the kind of experiment: Therapeutic effect on thallium poisoning in Wistar rats (Example 24). The conditions noted are these: EDTA 93.5 mg/kg, 4 weeks. Type of series: in vivo. The method, then: After successful molding, rats were divided to 10 rats in the blank group and the remaining 50 rats, and the grouping and administration dose are shown in Table 19. Rats in all groups were administrated once a day for 5 days/week for a total of 4 weeks.
Rats were sacrificed 24 h after administration on the last day; blood, kidney, brain and liver were taken, and thallium contents in these organs were detected by ICP-MS, and the test results are shown in Table 20.

Series [5] relates to mixed chromium, cobalt, nickel and manganese poisoning model rabbits. As to the kind of experiment: Therapeutic effect on mixed poisoning of chromium, cobalt, nickel and manganese in rabbits (Example 26). Type of series: in vivo, New Zealand rabbits. Conditions: EDTA 93.5 mg/kg, 3 days of treatment. The protocol: 40 New Zealand rabbits with a weight of 1.5˜2.0 kg were taken, and normal saline was injected intravenously at the ear margin of rabbits of the blank group for 5 days. A mixed solution containing 5 mg/ml CrCl3, 3 mg/ml CoCl2, 1 mg/ml NiCl2 and 2 mg/ml MnCl2 was injected intravenously at the ear margin of rabbits of poisoning groups with a dose of 2 ml/kg for 5 days, and observed for 25 days, thus resulting in mixed poisoning models of chromium, cobalt, nickel and manganese in New Zealand rabbits.
After successful molding, there were 8 rabbits in the blank group and 24 rabbits in mixed poisoning groups. Rabbits in all groups were given once daily for 3 days. Rabbits in the blank group and the model group were administered by intravenous dripping with normal saline, and rabbits in the treating groups were administered with a normal saline solution containing the corresponding drug. The administration volume of all groups was the same, with a dripping rate of 30 drops/min, an administration time of about 2 h, 1 time/day for 3 days; the grouping and administration dose of New Zealand rabbit in different groups were shown in Table 21. 24-hour urine was collected every day for a total of 3 days, and the total amounts of chromium, cobalt, nickel and manganese excreted through urine during the 3 days were calculated, as shown in Table 22.

The test system of series [6] is arsenic poisoning model rats. The series can be described thus: Therapeutic effect on arsenic poisoning in Wistar rats (Example 23). Conditions: EDTA 93.5 mg/kg. Type of series: in vivo. The method, then: 60 Wistar rats with a body weight of 180˜200 g were taken; rats in a blank group freely drank deionized water for 3 months; rats in arsenic poisoning groups freely drank an aqueous solution containing 100 mg/L·As2O3 for continuous 3 months, with a water mount of 20 ml per day, equivalent to an oral dose of 10 mg/kg, resulting in arsenic poisoning of drinking water-type in rats.
After successful molding, rats were divided to 10 rats in blank group and the remaining 50 rats. All groups were administrated once a day for 5 days/week for a total of 4 weeks. Rats in the blank group and the model group were administered by intravenous drip with normal saline, and rats in the treating group were administered with a normal saline solution of the corresponding drug; all groups had the same administration volume, a drip rate of 30 drops/min, and an dripping time of about 1 h, 1 time/d, 5 d/week, for a total of four weeks.
Urine was collected on day 1 and day 26, arsenic excretion was measured; blood and kidney of rats were taken 24 hours after the 26th day of administration, and blood arsenic concentrations and renal arsenic concentrations were detected with ICPMS; the results are shown in Table 18.

Setting [7] is: 1 w of treatment, high-dose group (D3 433, compound 3B 83.5, composition 3 and composition 3-preparation 108 mg/kg).
The mark [8] stands for this setting: 1 w of treatment, low-dose group (D3 108, compound 3B 21, composition 3 and composition 3-preparation 27 mg/kg).
Setting [9] is: 2 w of treatment, high-dose group (D3 433, compound 3B 83.5, composition 3 and composition 3-preparation 108 mg/kg).
Setting [10] is: 2 w of treatment, low-dose group (D3 108, compound 3B 21, composition 3 and composition 3-preparation 27 mg/kg).
Setting [11] is: 4 w of treatment, high-dose group (D3 433, compound 3B 83.5, composition 3 and composition 3-preparation 108 mg/kg).
The mark [12] stands for this setting: 4 w of treatment, low-dose group (D3 108, compound 3B 21, composition 3 and composition 3-preparation 27 mg/kg).

As for `N.N.[Cl][Pt][Cl]` [Cisplatin, cisplatin], in series [1], the ALT turned out to be 86.68 ± 26.88 U/L, the AST is listed as 89.20 ± 13.66 U/L and the CREA was 470.35 ± 85.57 µmol/L.

Consider `CSCCC(NCC(O)C(O)C(O)C(O)CO)C(=O)[O-].[Na+]` (stereo not shown) [Compound 3B], for which the Cadmium in blood in series [2] (setting [7]) came out at 101.54 ± 13.27 µg/L; in series [2] (setting [8]) it was 102.21 ± 16.38 µg/L; in series [2] (setting [9]), 73.18 ± 15.27 µg/L; in series [2] (setting [10]) it was 72.02 ± 16.92 µg/L; in series [2] (setting [11]) it was 27.92 ± 14.72 µg/L; in series [2] (setting [12]), 28.53 ± 12.62 µg/L. Moreover, the Cadmium in kidney in series [2] (setting [7]) is 11.94 ± 3.51 µg/L; in series [2] (setting [8]) it was 12.03 ± 3.84 µg/L; in series [2] (setting [9]), 12.62 ± 5.37 µg/L; in series [2] (setting [10]) it was 12.57 ± 3.37 µg/L; in series [2] (setting [11]), 14.02 ± 2.96 µg/L; in series [2] (setting [12]), 13.22 ± 4.20 µg/L. Moreover, the “cadmium-removing effect (compared with the model group)” value in series [2] (21 and 83.5 mg/kg, 1-4 weeks) is given as “no cadmium-removing effect”. In addition, the “Urine β2-microglobulin values” is 209.42 ± 38.21 ng/L in series [2] (high-dose group (D3 433, compound 3B 83.5, composition 3 and composition 3-preparation 108 mg/kg)); 213.56 ± 31.76 ng/L in series [2] (low-dose group (D3 108, compound 3B 21, composition 3 and composition 3-preparation 27 mg/kg)).

As for `O=C(O)CN(CCN(CC(=O)O)CC(=O)O)CC(=O)O` [EDTA, ethylenediaminetetraacetate], in series [3], the “Blood concentration of Ca2+” value was 89.31 ± 5.28 µg/g, the “Blood concentration of Cu2+” value was 754.21 ± 70.59 µg/g, the “Blood concentration of Fe3+” value was determined as 194.72 ± 19.29 µg/g and the “Blood concentration of Mg2+” value came out at 43.61 ± 3.32 µg/g. In series [3], the “Blood concentration of Zn2+” value was 2942.15 ± 176.08*^ΔΔ μg/g, the Lead in blood came out at 1218.69 ± 129.33 µg/L, the Lead in kidney is listed as 16.54 ± 4.67 ^ μg/g and the Lead in liver is 0.47 ± 0.28 µg/g. Also, in series [4], the Thallium in blood turned out to be 836.69 ± 168.83 µg/L, the Thallium in kidney came to 12.54 ± 4.48 µg/g and the Thallium in liver was determined as 4.27 ± 2.18 µg/g. Also, in series [5], the “Chromium in urine, total excreted in 3 days” value was 178.48 ± 42.69 µg; the “Cobalt in urine, total excreted in 3 days” value is given as 162.28 ± 44.97 ^ μg; the “Manganese in urine, total excreted in 3 days” value is on record as 169.52 ± 32.63 ^ μg; the “Nickel in urine, total excreted in 3 days” value is recorded as 188.28 ± 63.17 ^ μg. In series [6], the “Total arsenic in urine on day 1” value was 3.27 ± 1.84 µg and the “Total arsenic in urine on day 26” value turned out to be 3.18 ± 1.35 µg. In series [6] (24 hours after the 26th day), the Arsenic in blood worked out at 1362.98 ± 319.58 µg/L and the Arsenic in kidney amounted to 6.08 ± 2.35 µg/g.

Values taken from patent US20250295628A1 (priority 2022, published 2025).
